system: HCV pseudoparticles (genotype 1a HCV E1 and E2 envelope, H77C isolate); experiment: microbe, parasite or virus in culture; assay type: cell-based; conditions: Hepatitis C virus, Huh-7, 48 h, class symbol; HCV pseudoparticles genotype 1a (H77C), Huh7 cells, luciferase 2 days after infection, average of duplicates

Row | Compound | EC50 [nM]
1 | CC(C)OC(=O)N1CCCOc2ccc(cc2)CNc2nc(nc(OCC(F)(F)F)n2)Nc2ccc(C(=O)NCC3(CN4CCCC4)CC3)c(c2)OCCC1 [Example 3006] | 0.1 to 100
2 | CC(C)(C)OC(=O)N1CCCC(C(NC(=O)c2ccc3cc2OCCCCCCOc2ccc(cc2)CNc2nc(nc(OCC(F)(F)F)n2)N3)C(=O)O)C1 (centres unmarked) [Example 1551] | 0.1 to 100
3 | O=C(NC1CCNC1=O)c1ccc2cc1OCCCCCCOc1ccc(cc1)CNc1nc(nc(OCC(F)(F)F)n1)N2 (centres unmarked) [Example 1324] | 0.1 to 100
4 | O=C(NC[C@H](NC(=O)c1ccc2cc1OCCCCCCOc1ccc(cc1)CNc1nc(nc(OCC(F)(F)F)n1)N2)C(=O)O)c1ccccc1 [Example 1562] | 0.1 to 100
5 | CC(C)(C)OC(=O)N1CCC(C(NC(=O)c2ccc3cc2OCCCCCCOc2ccc(cc2)CNc2nc(nc(OCC(F)(F)F)n2)N3)C(=O)O)CC1 (centres unmarked) [Example 1406] | 0.1 to 100
6 | CC(C)(C)OC(=O)NC(CNC(=O)c1ccc2cc1OCCCCCCOc1ccc(cc1)CNc1nc(nc(OCC(F)(F)F)n1)N2)C(=O)O (centres unmarked) [Example 1409] | 0.1 to 100
7 | CC(C)NC(=O)N1CCCOc2ccc(cc2)CNc2nc(nc(OCC(F)(F)F)n2)Nc2ccc(C(=O)NCC3(CN4CCCC4)CC3)c(c2)OCCC1 [Example 3009] | 0.1 to 100
8 | O=C1NCCNc2nc(nc(OCC(F)(F)F)n2)Nc2cccc(c2)CNC(=O)OCCO1 [Example 1014] | 1000 to 50000
9 | CCN1CCCOc2ccc(cc2)CNc2nc(nc(OCC(F)(F)F)n2)Nc2ccc(C(=O)NCC3(CN4CCCC4)CC3)c(c2)OCCC1 [Example 3011] | 0.1 to 100
10 | C=C1COc2ccc(cc2)CNc2nc(nc(OCC(F)(F)F)n2)Nc2ccc(C(=O)O)c(c2)OC1 [Example 1005] | 1000 to 50000
11 | CCOC(=O)N1CCCCOc2cc(ccc2C(=O)NCC2(CN3CCCC3)CC2)Nc2nc(nc(OCC(F)(F)F)n2)NCc2ccc(cc2)OCCC1 [Example 3020] | 0.1 to 100
12 | COC(=O)[C@H](CCNC(=O)OC(C)(C)C)NC(=O)c1ccc2cc1OCCCCCCOc1ccc(cc1)CNc1nc(nc(OCC(F)(F)F)n1)N2 [Example 1307] | 0.1 to 100
13 | CCNC(=O)N1CCCOc2ccc(cc2)CNc2nc(nc(OCC(F)(F)F)n2)Nc2ccc(C(=O)NCC3(CN4CCCC4)CC3)c(c2)OCCC1 [Example 3008] | 0.1 to 100
14 | CC(C)(C)OC(=O)N[C@@H](CCNC(=O)c1ccc2cc1OCCCCCCOc1ccc(cc1)CNc1nc(nc(OCC(F)(F)F)n1)N2)C(=O)OC(C)(C)C [Example 1325] | 0.1 to 100
15 | COC(=O)CC1CCN(C(=O)c2ccc3cc2OCCCCCCCCOc2ccc(cc2)CNc2nc(nc(OCC(F)(F)F)n2)N3)C1 (centres unmarked) [Example 1103] | 1000 to 50000
16 | COC(=O)C(NC(=O)c1ccc2cc1OCCCCCCCCOc1ccc(cc1)CNc1nc(nc(OCC(F)(F)F)n1)N2)C1CCCN(C(=O)OC(C)(C)C)C1 (centres unmarked) [Example 1106] | 0.1 to 100
17 | CN(C)CC(C)(C)CNC(=O)c1ccc2cc1OCCCCCOc1ccc(cc1)CNc1nc(nc(OCC(F)(F)F)n1)N2 [Example 1009] | 0.1 to 100
18 | O=C(CNC(=O)c1ccc2cc1OCCCCCCCCOc1ccc(cc1)CNc1nc(nc(OCC(F)(F)F)n1)N2)NS(=O)(=O)C1CC1 [Example 1133] | 100 to 1000
19 | CC(C)(C)OC(=O)N[C@H](CCNC(=O)c1ccc2cc1OCCCCCCOc1ccc(cc1)CNc1nc(nc(OCC(F)(F)F)n1)N2)C(=O)O [Example 1412] | 0.1 to 100
20 | O=C(NCC1(CN2CCCC2)CC1)c1ccc2cc1OCCCCCCNc1nc(nc(OCC(F)(F)F)n1)N2 [Example 4001] | 1000 to 50000

Row | Compound | EC50 [nM]
21 | O=C(O)c1ccc2cc1OCCCCCCOc1ccc(cc1)CNc1nc(nc(OCC(F)(F)F)n1)N2 [Example 1302] | 1000 to 50000
22 | FC(F)(F)COc1nc2nc(n1)NC1(CC1)c1ccc(cc1)OCCCCOc1cccc(c1)N2 [Example 2009] | 0.1 to 100
23 | CCCCN1CCCOc2ccc(cc2)CNc2nc(nc(OCC(F)(F)F)n2)Nc2ccc(C(=O)NCC3(CN4CCCC4)CC3)c(c2)OCCC1 [Example 3014] | 0.1 to 100
24 | C=C1COc2ccc(cc2)CNc2nc(nc(OCC(F)(F)F)n2)Nc2ccc(C(=O)NCC3(CN4CCCC4)CC3)c(c2)OC1 [Example 1006] | 1000 to 50000
25 | COC(=O)[C@H](CNC(=O)OC(C)(C)C)NC(=O)c1ccc2cc1OCCCCCCOc1ccc(cc1)CNc1nc(nc(OCC(F)(F)F)n1)N2 [Example 1321] | 0.1 to 100
26 | COC(=O)[C@H](CNC(C)=O)NC(=O)c1ccc2cc1OCCCCCCOc1ccc(cc1)CNc1nc(nc(OCC(F)(F)F)n1)N2 [Example 1701] | 0.1 to 100
27 | COC(=O)[C@H](CNC(=O)c1ccccc1)NC(=O)c1ccc2cc1OCCCCCCOc1ccc(cc1)CNc1nc(nc(OCC(F)(F)F)n1)N2 [Example 1323] | 0.1 to 100
28 | FC(F)(F)COc1nc2nc(n1)Nc1cccc(c1)OCCCCOc1cccc(c1)N2 [Example 2004] | 0.1 to 100
29 | CC(C)(C)OC(=O)NC[C@@H](NC(=O)c1ccc2cc1OCCCCCCOc1ccc(cc1)CNc1nc(nc(OCC(F)(F)F)n1)N2)C(=O)O [Example 1556] | 100 to 1000
30 | CC(C)CN1CCCOc2ccc(cc2)CNc2nc(nc(OCC(F)(F)F)n2)Nc2ccc(C(=O)NCC3(CN4CCCC4)CC3)c(c2)OCCC1 [Example 3013] | 0.1 to 100
31 | N=C(N)NCCC[C@H](NC(=O)c1ccc2cc1OCCOCCOCCOc1ccc(cc1)CNc1nc(nc(OCC(F)(F)F)n1)N2)C(=O)O [Example 1602] | 0.1 to 100
32 | CC(=O)NC[C@H](NC(=O)c1ccc2cc1OCCCCCCOc1ccc(cc1)CNc1nc(nc(OCC(F)(F)F)n1)N2)C(=O)O [Example 1711] | 0.1 to 100
33 | COC(=O)N1CCCCOc2cc(ccc2C(=O)NCC2(CN3CCCC3)CC2)Nc2nc(nc(OCC(F)(F)F)n2)NCc2ccc(cc2)OCCC1 [Example 3019] | 0.1 to 100
34 | COC(=O)C(NC(=O)c1ccc2cc1OCCCCCCCCOc1ccc(cc1)CNc1nc(nc(OCC(F)(F)F)n1)N2)C1CCCNC1 (centres unmarked) [Example 1152] | 0.1 to 100
35 | COC(=O)c1ccc2cc1OCCOCCOCCOc1ccc(cc1)CNc1nc(nc(OCC(F)(F)F)n1)N2 [Example 1007] | 1000 to 50000
36 | CC(C)(C)OC(=O)NCC[C@H](NC(=O)c1ccc2cc1OCCCCCCOc1ccc(cc1)CNc1nc(nc(OCC(F)(F)F)n1)N2)C(=O)O [Example 1561] | 0.1 to 100
37 | O=C(NCC1CCNC1)c1ccc2cc1OCCCCCCCCOc1ccc(cc1)CNc1nc(nc(OCC(F)(F)F)n1)N2 (centres unmarked) [Example 1151] | 0.1 to 100
38 | CC(C)(C)OC(=O)N1CCC(CNC(=O)c2ccc3cc2OCCCCCCOc2ccc(cc2)CNc2nc(nc(OCC(F)(F)F)n2)N3)C1 (centres unmarked) [Example 1305] | 0.1 to 100
39 | CC(C)OC(=O)N1CCCCOc2cc(ccc2C(=O)NCC2(CN3CCCC3)CC2)Nc2nc(nc(OCC(F)(F)F)n2)NCc2ccc(cc2)OCCC1 [Example 3021] | 0.1 to 100
40 | CC[C@@H](C)[C@H](NC(=O)c1ccc2cc1OCCCCCCOc1ccc(cc1)CNc1nc(nc(OCC(F)(F)F)n1)N2)C(=O)O [Example 1404] | 0.1 to 100

Row | Compound | EC50 [nM]
41 | CNC(=O)N1CCCOc2ccc(cc2)CNc2nc(nc(OCC(F)(F)F)n2)Nc2ccc(C(=O)NCC3(CN4CCCC4)CC3)c(c2)OCCC1 [Example 3007] | 0.1 to 100
42 | CN(C)CC(C)(C)CNC(=O)c1ccc2cc1OCCCCCCOc1ccc(cc1)CNc1nc(nc(OCC(F)(F)F)n1)N2 [Example 1202] | 0.1 to 100
43 | O=C(NC(C(=O)O)C1CCCNC1)c1ccc2cc1OCCOCCOCCOc1ccc(cc1)CNc1nc(nc(OCC(F)(F)F)n1)N2 (centres unmarked) [Example 1606] | 0.1 to 100
44 | O=C(NC(C(=O)O)C1CCCNC1)c1ccc2cc1OCCCCCCOc1ccc(cc1)CNc1nc(nc(OCC(F)(F)F)n1)N2 (centres unmarked) [Example 1552] | 0.1 to 100
45 | CC(C)(C)OC(=O)N1CCCOc2ccc(cc2)CNc2nc(nc(OCC(F)(F)F)n2)Nc2ccc(C(=O)O)c(c2)OCCC1 [Example 3002] | 0.1 to 100
46 | CC(C)(C)OC(=O)N1CCCOc2cccc(c2)CNc2nc(nc(OCC(F)(F)F)n2)Nc2ccc(C(=O)NCC3(CN4CCCC4)CC3)c(c2)OCCC1 [Example 3024] | 100 to 1000
47 | CN(C)CC(C)(C)CNC(=O)c1ccc2cc1OCCOCCOCCOc1ccc(cc1)CNc1nc(nc(OCC(F)(F)F)n1)N2 [Example 1011] | 0.1 to 100
48 | O=C(NC1CCCNC1)c1ccc2cc1OCCCCCCCCOc1ccc(cc1)CNc1nc(nc(OCC(F)(F)F)n1)N2 (centres unmarked) [Example 1013] | 0.1 to 100
49 | CN(C)CC(C)(C)CNC(=O)c1ccc2cc1OCCCCCCOCC(c1ccccc1)Nc1nc(nc(OCC(F)(F)F)n1)N2 (centres unmarked) [Example 1807] | 1000 to 50000
50 | CN(C)CC(C)(C)CNC(=O)c1ccc2cc1OCCCCCCCOc1ccc(cc1)CNc1nc(nc(OCC(F)(F)F)n1)N2 [Example 1201] | 0.1 to 100
51 | COC(=O)C(NC(=O)c1ccc2cc1OCCOCCOCCOc1ccc(cc1)CNc1nc(nc(OCC(F)(F)F)n1)N2)C1CCCNC1 (centres unmarked) [Example 1607] | 0.1 to 100
52 | COC(=O)c1ccc2cc1OCCCCNCCCOc1ccc(cc1)CNc1nc(nc(OCC(F)(F)F)n1)N2 [Example 3015] | 0.1 to 100
53 | NC[C@@H](NC(=O)c1ccc2cc1OCCCCCCOc1ccc(cc1)CNc1nc(nc(OCC(F)(F)F)n1)N2)C(=O)O [Example 1555] | 100 to 1000
54 | O=C(c1ccc2cc1OCCCCCCCCOc1ccc(cc1)CNc1nc(nc(OCC(F)(F)F)n1)N2)N1CCC2(CCNC2)C1 (centres unmarked) [Example 1153] | 100 to 1000
55 | CC(C)(C)OC(=O)NC[C@H](NC(=O)c1ccc2cc1OCCOCCOCCOc1ccc(cc1)CNc1nc(nc(OCC(F)(F)F)n1)N2)C(=O)O [Example 1608] | 0.1 to 100
56 | CC(C)C(=O)N1CCCCOc2cc(ccc2C(=O)NCC2(CN3CCCC3)CC2)Nc2nc(nc(OCC(F)(F)F)n2)NCc2ccc(cc2)OCCC1 [Example 3023] | 0.1 to 100
57 | O=C(NCC1CCNC1)c1ccc2cc1OCCCCCCOc1ccc(cc1)CNc1nc(nc(OCC(F)(F)F)n1)N2 (centres unmarked) [Example 1501] | 0.1 to 100
58 | CC(C)(C)OC(=O)N1CCC(NC(=O)c2ccc3cc2OCCCCCCOc2ccc(cc2)CNc2nc(nc(OCC(F)(F)F)n2)N3)(C(=O)O)CC1 [Example 1410] | 100 to 1000

same assay, conditions: Hepatitis C virus, Huh-7, 48 h, numeric value; HCV pseudoparticles genotype 1a (H77C), Huh7 cells, luciferase 2 days after infection, average of duplicates

Row | Compound | EC50 [nM]
59 | O=C(NC[C@H](NC(=O)c1ccc2cc1OCCCCCCOc1ccc(cc1)CNc1nc(nc(OCC(F)(F)F)n1)N2)C(=O)O)c1ccccc1 [Example 1562] | 28.7
60 | CCNC(=O)N1CCCOc2ccc(cc2)CNc2nc(nc(OCC(F)(F)F)n2)Nc2ccc(C(=O)NCC3(CN4CCCC4)CC3)c(c2)OCCC1 [Example 3008] | 5.36
61 | CC(C)(C)OC(=O)N[C@H](CCNC(=O)c1ccc2cc1OCCCCCCOc1ccc(cc1)CNc1nc(nc(OCC(F)(F)F)n1)N2)C(=O)O [Example 1412] | 24.8
62 | O=C(NCC1(CN2CCCC2)CC1)c1ccc2cc1OCCCCCCNc1nc(nc(OCC(F)(F)F)n1)N2 [Example 4001] | 42600
63 | FC(F)(F)COc1nc2nc(n1)NC1(CC1)c1ccc(cc1)OCCCCOc1cccc(c1)N2 [Example 2009] | 18
64 | CC(C)(C)OC(=O)NC[C@@H](NC(=O)c1ccc2cc1OCCCCCCOc1ccc(cc1)CNc1nc(nc(OCC(F)(F)F)n1)N2)C(=O)O [Example 1556] | 101
65 | COC(=O)N1CCCCOc2cc(ccc2C(=O)NCC2(CN3CCCC3)CC2)Nc2nc(nc(OCC(F)(F)F)n2)NCc2ccc(cc2)OCCC1 [Example 3019] | 10.2
66 | COC(=O)c1ccc2cc1OCCOCCOCCOc1ccc(cc1)CNc1nc(nc(OCC(F)(F)F)n1)N2 [Example 1007] | 9840
67 | CC(C)(C)OC(=O)NC[C@H](NC(=O)c1ccc2cc1OCCOCCOCCOc1ccc(cc1)CNc1nc(nc(OCC(F)(F)F)n1)N2)C(=O)O [Example 1608] | 56.2

same assay, conditions: read-out: EC50

Row | Compound | EC50 [nM]
68 | COC(=O)c1ccc2cc1OCCCCOC[C@H](c1ccccc1)Nc1nc(nc(OCC(F)(F)F)n1)N2 [Example 1003] | 1000 to 50000
